Laboratory results: paper PMC6704710, “Preclinical evaluation of 3D185, a novel potent inhibitor of FGFR1/2/3 and CSF-1R, in FGFR-dependent and macrophage-dominant cancer models” (Journal of Experimental & Clinical Cancer Research : CR, 2019)

Assays:
Assay in all cases: Eurofins kinase panel
Assay type in all cases: biochemical
Conditions in all cases: read-out: Inhibition rate (%)
BTK(h) = target: T1, BTK(h) (Homo sapiens, UniProt Q06187)
T1 construct: purchased Eurofins (KinaseProfiler)

SGK2(h) = target: T2, SGK2(h) (Homo sapiens, UniProt Q9HBY8)
T2 construct: purchased Eurofins (KinaseProfiler)
T2 sequence (Q9HBY8 1-367): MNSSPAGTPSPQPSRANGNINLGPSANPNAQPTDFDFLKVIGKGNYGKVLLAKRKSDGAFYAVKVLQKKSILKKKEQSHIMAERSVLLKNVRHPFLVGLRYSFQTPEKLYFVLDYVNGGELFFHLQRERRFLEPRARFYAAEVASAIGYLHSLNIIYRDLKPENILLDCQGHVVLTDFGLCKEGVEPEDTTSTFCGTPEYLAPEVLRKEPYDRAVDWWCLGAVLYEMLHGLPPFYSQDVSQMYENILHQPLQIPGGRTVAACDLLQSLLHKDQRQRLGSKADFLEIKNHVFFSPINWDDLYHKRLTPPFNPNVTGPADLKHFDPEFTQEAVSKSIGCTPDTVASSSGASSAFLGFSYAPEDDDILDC

TGFBR2(h) = target: T3, TGFBR2(h) (Homo sapiens, UniProt P37173)
T3 construct: purchased Eurofins (KinaseProfiler)
T3 sequence (P37173 23-567): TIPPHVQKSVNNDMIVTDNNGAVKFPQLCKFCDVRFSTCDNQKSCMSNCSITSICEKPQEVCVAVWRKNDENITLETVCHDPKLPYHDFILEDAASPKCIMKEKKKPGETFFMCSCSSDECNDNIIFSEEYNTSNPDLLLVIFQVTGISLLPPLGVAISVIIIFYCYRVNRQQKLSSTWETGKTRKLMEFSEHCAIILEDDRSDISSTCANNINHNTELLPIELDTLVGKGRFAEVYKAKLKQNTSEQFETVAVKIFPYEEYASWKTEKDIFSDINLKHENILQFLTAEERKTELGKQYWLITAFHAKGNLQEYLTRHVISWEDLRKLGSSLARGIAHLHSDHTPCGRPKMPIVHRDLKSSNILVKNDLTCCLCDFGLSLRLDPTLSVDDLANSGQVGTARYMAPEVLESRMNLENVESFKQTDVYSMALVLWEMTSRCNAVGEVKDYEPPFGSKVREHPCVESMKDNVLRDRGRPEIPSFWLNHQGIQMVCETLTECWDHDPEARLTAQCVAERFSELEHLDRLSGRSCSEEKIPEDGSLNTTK

GRK7(h) = target: T4, GRK7(h) (Homo sapiens, UniProt Q8WTQ7)
T4 construct: purchased Eurofins (KinaseProfiler)
T4 sequence (Q8WTQ7 1-553): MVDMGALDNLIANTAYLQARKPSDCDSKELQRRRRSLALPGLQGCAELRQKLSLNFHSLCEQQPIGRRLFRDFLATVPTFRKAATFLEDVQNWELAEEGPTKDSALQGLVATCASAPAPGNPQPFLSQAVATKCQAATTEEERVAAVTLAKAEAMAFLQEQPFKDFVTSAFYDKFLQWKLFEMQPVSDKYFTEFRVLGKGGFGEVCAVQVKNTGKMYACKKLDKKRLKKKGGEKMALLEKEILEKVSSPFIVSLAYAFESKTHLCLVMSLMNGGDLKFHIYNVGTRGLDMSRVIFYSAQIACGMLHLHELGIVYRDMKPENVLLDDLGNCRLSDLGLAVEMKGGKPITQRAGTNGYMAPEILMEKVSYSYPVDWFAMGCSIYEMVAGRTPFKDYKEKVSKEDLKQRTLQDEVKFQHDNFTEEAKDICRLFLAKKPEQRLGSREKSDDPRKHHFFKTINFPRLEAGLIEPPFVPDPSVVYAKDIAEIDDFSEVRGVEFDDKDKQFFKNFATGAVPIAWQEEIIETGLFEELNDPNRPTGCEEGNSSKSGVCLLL

SAPK2b(h) = target: T5, SAPK2b(h) (Homo sapiens, UniProt Q15759)
T5 construct: purchased Eurofins (KinaseProfiler)
T5 sequence (Q15759 whole entry): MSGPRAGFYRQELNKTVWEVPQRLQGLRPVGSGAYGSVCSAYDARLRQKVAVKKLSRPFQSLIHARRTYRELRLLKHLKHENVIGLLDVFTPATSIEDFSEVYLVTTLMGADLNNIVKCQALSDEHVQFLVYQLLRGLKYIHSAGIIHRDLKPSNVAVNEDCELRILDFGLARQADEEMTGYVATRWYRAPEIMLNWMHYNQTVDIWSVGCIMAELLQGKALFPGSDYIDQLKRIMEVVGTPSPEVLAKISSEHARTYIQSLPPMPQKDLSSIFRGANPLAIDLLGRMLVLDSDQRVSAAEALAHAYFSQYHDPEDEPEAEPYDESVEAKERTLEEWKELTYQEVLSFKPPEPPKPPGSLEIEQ

DYRK1A(h) = target: T6, DYRK1A(h) (Homo sapiens, UniProt Q13627)
T6 construct: purchased Eurofins (KinaseProfiler)

DCAMKL2(h) = target: T7, DCAMKL2(h) (Homo sapiens, UniProt Q8N568)
T7 construct: purchased Eurofins (KinaseProfiler)
T7 sequence (Q8N568 1-766): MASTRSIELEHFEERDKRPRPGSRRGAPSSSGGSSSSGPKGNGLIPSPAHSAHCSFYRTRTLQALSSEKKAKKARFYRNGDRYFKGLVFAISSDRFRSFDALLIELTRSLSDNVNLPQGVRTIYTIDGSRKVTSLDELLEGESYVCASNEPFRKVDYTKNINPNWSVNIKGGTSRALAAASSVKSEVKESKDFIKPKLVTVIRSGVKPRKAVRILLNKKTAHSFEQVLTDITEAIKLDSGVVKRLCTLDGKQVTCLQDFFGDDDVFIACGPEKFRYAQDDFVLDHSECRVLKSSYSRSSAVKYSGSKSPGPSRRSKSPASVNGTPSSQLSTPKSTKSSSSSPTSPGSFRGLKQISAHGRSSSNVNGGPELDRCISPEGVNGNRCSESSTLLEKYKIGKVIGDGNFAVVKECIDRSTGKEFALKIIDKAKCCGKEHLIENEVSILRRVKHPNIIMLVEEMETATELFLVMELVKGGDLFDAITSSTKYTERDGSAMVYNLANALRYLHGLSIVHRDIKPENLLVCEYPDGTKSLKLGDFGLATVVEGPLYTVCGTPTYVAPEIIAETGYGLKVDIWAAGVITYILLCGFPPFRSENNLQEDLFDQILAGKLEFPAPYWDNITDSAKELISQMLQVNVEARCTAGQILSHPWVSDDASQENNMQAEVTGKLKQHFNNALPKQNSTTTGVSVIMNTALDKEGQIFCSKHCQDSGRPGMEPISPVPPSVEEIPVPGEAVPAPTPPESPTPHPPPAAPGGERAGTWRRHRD

CK2(h) = target: T8, CK2(h) (Homo sapiens, UniProt P68400)
T8 construct: purchased Eurofins (KinaseProfiler)
T8 sequence (P68400 whole entry): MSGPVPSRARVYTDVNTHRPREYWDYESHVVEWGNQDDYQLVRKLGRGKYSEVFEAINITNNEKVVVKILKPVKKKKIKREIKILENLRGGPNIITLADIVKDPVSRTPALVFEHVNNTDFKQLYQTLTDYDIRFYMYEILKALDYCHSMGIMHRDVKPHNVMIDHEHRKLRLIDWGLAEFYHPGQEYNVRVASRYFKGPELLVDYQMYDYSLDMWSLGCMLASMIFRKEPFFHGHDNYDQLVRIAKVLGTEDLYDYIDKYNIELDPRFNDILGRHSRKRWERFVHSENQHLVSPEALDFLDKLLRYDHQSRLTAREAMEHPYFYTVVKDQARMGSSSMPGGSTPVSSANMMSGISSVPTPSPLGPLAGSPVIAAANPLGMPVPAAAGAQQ
T8 sequence (P67870 whole entry partner): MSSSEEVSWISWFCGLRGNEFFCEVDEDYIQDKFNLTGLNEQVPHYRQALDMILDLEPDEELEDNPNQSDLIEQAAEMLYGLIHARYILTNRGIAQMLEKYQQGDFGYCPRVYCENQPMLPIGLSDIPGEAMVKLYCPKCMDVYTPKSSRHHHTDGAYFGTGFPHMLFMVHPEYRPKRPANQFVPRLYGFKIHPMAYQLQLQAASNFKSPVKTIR

CHK2(I157T)(h) = target: T9, CHK2(I157T)(h) (Homo sapiens, UniProt O96017, I157T)
T9 construct: purchased Eurofins (KinaseProfiler)
T9 sequence (O96017 whole entry I157T): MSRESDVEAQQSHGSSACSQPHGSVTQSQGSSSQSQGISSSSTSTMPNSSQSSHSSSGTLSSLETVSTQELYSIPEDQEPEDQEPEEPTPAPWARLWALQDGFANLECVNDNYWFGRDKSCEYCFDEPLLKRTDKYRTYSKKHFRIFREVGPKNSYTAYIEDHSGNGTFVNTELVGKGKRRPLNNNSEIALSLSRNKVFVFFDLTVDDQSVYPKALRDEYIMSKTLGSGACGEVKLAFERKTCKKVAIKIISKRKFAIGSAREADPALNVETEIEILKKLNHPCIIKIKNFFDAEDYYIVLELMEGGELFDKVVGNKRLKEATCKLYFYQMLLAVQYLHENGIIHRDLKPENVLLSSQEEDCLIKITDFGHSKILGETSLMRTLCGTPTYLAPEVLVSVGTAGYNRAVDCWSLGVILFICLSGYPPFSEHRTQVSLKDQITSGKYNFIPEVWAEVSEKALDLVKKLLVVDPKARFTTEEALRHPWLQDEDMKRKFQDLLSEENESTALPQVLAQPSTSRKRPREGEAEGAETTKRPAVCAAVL

T1 sequence (Q06187 whole entry): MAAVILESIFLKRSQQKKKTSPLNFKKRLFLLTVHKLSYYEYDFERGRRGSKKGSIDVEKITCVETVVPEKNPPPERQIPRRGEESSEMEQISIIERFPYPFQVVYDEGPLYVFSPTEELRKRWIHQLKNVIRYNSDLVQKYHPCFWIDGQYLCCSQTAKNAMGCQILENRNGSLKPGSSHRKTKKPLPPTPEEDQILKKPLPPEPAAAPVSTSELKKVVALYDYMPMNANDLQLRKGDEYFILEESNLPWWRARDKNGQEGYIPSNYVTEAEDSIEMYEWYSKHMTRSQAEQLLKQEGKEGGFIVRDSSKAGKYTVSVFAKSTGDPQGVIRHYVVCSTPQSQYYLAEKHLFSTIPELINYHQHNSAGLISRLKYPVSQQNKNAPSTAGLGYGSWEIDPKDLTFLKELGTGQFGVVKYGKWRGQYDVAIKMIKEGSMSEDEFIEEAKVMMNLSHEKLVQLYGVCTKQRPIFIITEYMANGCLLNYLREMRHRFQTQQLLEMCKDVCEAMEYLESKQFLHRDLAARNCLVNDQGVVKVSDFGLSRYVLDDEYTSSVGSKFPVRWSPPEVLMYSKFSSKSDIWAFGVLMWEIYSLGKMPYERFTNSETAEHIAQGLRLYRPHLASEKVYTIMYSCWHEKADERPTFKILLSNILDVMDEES

COc1cc(OC)c(Cl)c(-c2ccc3c(NC(=O)c4ccc(N5CCNC(C)(C)C5)cc4)n[nH]c3n2)c1Cl [3D185] showed an inhibition at 0.01 µM (BTK(h); 10 nM) of 11%, an inhibition at 0.1 µM (BTK(h); 100 nM) of 39% and an inhibition at 1 µM (BTK(h); 1000 nM) of 90%. The inhibition at 0.01 µM (SGK2(h); 10 nM) was 4%, the inhibition at 0.1 µM (SGK2(h); 100 nM) was 1% and the inhibition at 1 µM (SGK2(h); 1000 nM) was 26%. The inhibition at 0.01 µM (TGFBR2(h); 10 nM) was -10%, the inhibition at 0.1 µM (TGFBR2(h); 100 nM) was -5% and the inhibition at 1 µM (TGFBR2(h); 1000 nM) was -9%. It also gave an inhibition at 0.01 µM (GRK7(h); 10 nM) of 9%, an inhibition at 0.1 µM (GRK7(h); 100 nM) of 16% and an inhibition at 1 µM (GRK7(h); 1000 nM) of 27%. For the same molecule, the inhibition at 0.01 µM (SAPK2b(h); 10 nM) was 3%, the inhibition at 0.1 µM (SAPK2b(h); 100 nM) was 14% and the inhibition at 1 µM (SAPK2b(h); 1000 nM) was 20%. For the same molecule, the inhibition at 0.01 µM (DYRK1A(h); 10 nM) was -4%, the inhibition at 0.1 µM (DYRK1A(h); 100 nM) was 1% and the inhibition at 1 µM (DYRK1A(h); 1000 nM) was 5%. For the same molecule, the inhibition at 0.01 µM (DCAMKL2(h); 10 nM) was 8%, the inhibition at 0.1 µM (DCAMKL2(h); 100 nM) was 18% and the inhibition at 1 µM (DCAMKL2(h); 1000 nM) was 28%. The inhibition at 0.01 µM (CK2(h); 10 nM) was 2%, the inhibition at 0.1 µM (CK2(h); 100 nM) was 9% and the inhibition at 1 µM (CK2(h); 1000 nM) was 9%. For the same molecule, the inhibition at 0.01 µM (CHK2(I157T)(h); 10 nM) was -6%, the inhibition at 0.1 µM (CHK2(I157T)(h); 100 nM) was -5% and the inhibition at 1 µM (CHK2(I157T)(h); 1000 nM) was -1%.
